Results taken from patent publication US20250221988A1 (Cullgen (Shanghai), Inc., priority 2022, published 2025).
Like-named read-outs stand apart in the source and are kept apart here.

Experiments:
MOLM-13 cells = experiment: Cell viability assay (CellTiter-Glo) in MOLM-13 cells; assay type: cell-based; settings: MOLM-13 cells, three days
Experimental: (§1) Cell Culture: RS4;11, MV4;11, MOLM-13 and other cells were cultured at 37° C. with 5% CO2 in RPMI 1640 or DMEM Medium supplemented with 10% fetal bovine serum. Cells were authenticated using the short tandem repeat (STR) assays. Mycoplasma test results were negative.
Cell viability assays: Cells were seeded at a density of 5000 cells per well in 96-well assay plates and treated with test compounds following a 8-point or 12-point 3-fold serial dilution. Three days later, cell viability was determined using the CellTiter-Glo assay kit according to the manufacturer's instructions. The dose-response curves were determined and IC50 values were calculated using the GraphPad Prism software following a nonlinear regression (least squares fit) method. […]

MV4;11 cells = experiment: Cell viability assay (CellTiter-Glo) in MV4;11 cells; assay type: cell-based; settings: MV4;11 cells, three days, read-out: MV4
Experimental: as §1
Cell viability assays: Cells were seeded at a density of 5000 cells per well in 96-well assay plates and treated with test compounds following a 8-point or 12-point 3-fold serial dilution. Three days later, cell viability was determined using the CellTiter-Glo assay kit according to the manufacturer's instructions. The dose-response curves were determined and IC50 values were calculated using the GraphPad Prism software following a nonlinear regression (least squares fit) method.
The IC50 values (nM) of each compound were determined in MV4;11 and MOLM-13 cells with or without gilteritinib (10 nM for MV4;11; and 20 nM for MOML-13) as described in the Materials and Methods subsection and calculated using the GraphPad Prism 5.0 software.

[1] = Homo sapiens, 72 h, compound alone, read-out: MOLM-13 IC50
[2] = Homo sapiens, MV4-11, 72 h, compound alone, 11 IC50
[3] = with gilteritinib, read-out: MOLM-13 IC50 (nM) + 10 nM Gil
[4] = with 10 nM gilteritinib, 11 IC50 (nM) + 10 nM Gil

| Structure (SMILES) | IC50 (MOLM-13 cells; [1]) | IC50 (MV4;11 cells; [2]) | IC50 (MOLM-13 cells; [3]) | IC50 (MV4;11 cells; [4]) |
| --- | --- | --- | --- | --- |
| COc1ccc2c(C3CC3)nn([C@H]3C[C@H](CNc4ccc5c(c4)C(=O)N(C4CCC(=O)NC4=O)C5=O)C3)c2n1 (stereo partly drawn) [GS-674, 5-(((Trans-3-(3-cyclopropyl-6-methoxy-1H-pyrazolo[3,4-b]pyridin-1-yl)cyclobutyl)methyl)amino)-2-(2,6-dioxopiperidin-3-yl)isoindoline-1,3-dione] | > 1000 nM | > 1000 nM | – | – |
| Cc1cc(F)cnc1-c1cn([C@H]2C[C@H](CNc3ccc4c(c3)CN(C3CCC(=O)NC3=O)C4=O)C2)nc1C1CC1 (stereo partly drawn) [GS-676, 3-(5-(((Trans-3-(3-cyclopropyl-4-(5-fluoro-3-methylpyridin-2-yl)-1H-pyrazol-1-yl)cyclobutyl)methyl)amino)-1-oxoisoindolin-2-yl)piperidine-2,6-dione] | < 10 nM | < 10 nM | < 10 nM | < 10 nM |
| Cc1nc(-c2cn([C@H]3C[C@H](CNc4ccc5c(c4)CN(C4CCC(=O)NC4=O)C5=O)C3)nc2C(F)F)ccc1F (stereo partly drawn) [GS-677, 3-(5-(((Trans-3-(3-(difluoromethyl)-4-(5-fluoro-6-methylpyridin-2-yl)-1H-pyrazol-1-yl)cyclobutyl)methyl)amino)-1-oxoisoindolin-2-yl)piperidine-2,6-dione] | < 10 nM | < 10 nM | < 10 nM | < 10 nM |
| COc1ccnc2c1c(C1CC1)nn2[C@H]1C[C@H](CNc2ccc3c(c2)C(=O)N(C2CCC(=O)NC2=O)C3=O)C1 (stereo partly drawn) [GS-681, 5-(((Trans-3-(3-cyclopropyl-4-methoxy-1H-pyrazolo[3,4-b]pyridin-1-yl)cyclobutyl)methyl)amino)-2-(2,6-dioxopiperidin-3-yl)isoindoline-1,3-dione] | > 1000 nM | > 1000 nM | 10 to 100 nM | 100 to 1000 nM |
| O=C1CCC(N2C(=O)c3ccc(NC[C@H]4C[C@H](n5cc(-c6ncc(F)cc6C6CCNCC6)c(C6CC6)n5)C4)cc3C2=O)C(=O)C1 (stereo partly drawn) [GS-686, 5-(((Trans-3-(3-cyclopropyl-4-(5-fluoro-3-(piperidin-4-yl)pyridin-2-yl)-1H-pyrazol-1-yl)cyclobutyl)methyl)amino)-2-(2,4-dioxocyclohexyl)isoindoline-1,3-dione] | > 1000 nM | > 1000 nM | 100 to 1000 nM | 100 to 1000 nM |
| Cc1c2ccccc2nn1[C@H]1C[C@H](CNc2ccc3c(c2)C(=O)N(C2CCC(=O)NC2=O)C3=O)C1 (stereo partly drawn) [GS-688, 2-(2,6-Dioxopiperidin-3-yl)-5-(((trans-3-(3-methyl-2H-indazol-2-yl)cyclobutyl)methyl)amino)isoindoline-1,3-dione] | > 1000 nM | > 1000 nM | 100 to 1000 nM | – |
| Cc1nn([C@H]2C[C@H](CNc3ccc4c(c3)C(=O)N(C3CCC(=O)NC3=O)C4=O)C2)c2ccccc12 (stereo partly drawn) [GS-689, 2-(2,6-Dioxopiperidin-3-yl)-5-(((trans-3-(3-methyl-1H-indazol-1-yl)cyclobutyl)methyl)amino)isoindoline-1,3-dione] | 100 to 1000 nM | 10 to 100 nM | 10 to 100 nM | 10 to 100 nM |

Continued, values first:

| IC50 (MOLM-13 cells; [1]) | IC50 (MV4;11 cells; [2]) | IC50 (MOLM-13 cells; [3]) | IC50 (MV4;11 cells; [4]) | Structure (SMILES) |
| --- | --- | --- | --- | --- |
| > 1000 nM | > 1000 nM | 100 to 1000 nM | 100 to 1000 nM | O=C1CCC(N2C(=O)c3ccc(NC[C@H]4C[C@H](n5cc(-c6cc7c(cn6)cnn7C6CNC6)c(C6CC6)n5)C4)cc3C2=O)C(=O)N1 (stereo partly drawn) [GS-675, 5-(((Trans-3-(4-(1-(azetidin-3-yl)-1H-pyrazolo[4,3-c]pyridin-6-yl)-3-cyclopropyl-1H-pyrazol-1-yl)cyclobutyl)methyl)amino)-2-(2,6-dioxopiperidin-3-yl)isoindoline-1,3-dione] |
| < 10 nM | < 10 nM | < 10 nM | < 10 nM | Cn1ncc2cnc(-c3cn([C@H]4C[C@H](CNc5ccc6c(c5)CN(C5CCC(=O)NC5=O)C6=O)C4)nc3C3CC3)cc21 (stereo partly drawn) [GS-678, 3-(5-(((Trans-3-(3-cyclopropyl-4-(1-methyl-1H-pyrazolo[4,3-c]pyridin-6-yl)-1H-pyrazol-1-yl)cyclobutyl)methyl)amino)-1-oxoisoindolin-2-yl)piperidine-2,6-dione] |
| > 1000 nM | > 1000 nM | 100 to 1000 nM | 100 to 1000 nM | Cc1ccnc2c1c(C1CC1)nn2[C@H]1C[C@H](CNc2ccc3c(c2)C(=O)N(C2CCC(=O)NC2=O)C3=O)C1 (stereo partly drawn) [GS-679, 5-(((Trans-3-(3-cyclopropyl-4-methyl-1H-pyrazolo[3,4-b]pyridin-1-yl)cyclobutyl)methyl)amino)-2-(2,6-dioxopiperidin-3-yl)isoindoline-1,3-dione] |
| 10 to 100 nM | < 10 nM | < 10 nM | < 10 nM | CN1CC(n2cc3cnc(-c4cn([C@H]5C[C@H](CNc6ccc7c(c6)C(=O)N(C6CCC(=O)NC6=O)C7=O)C5)nc4C4CC4)cc3n2)C1 (stereo partly drawn) [GS-680, 5-(((Trans-3-(3-cyclopropyl-4-(2-(1-methylazetidin-3-yl)-2H-pyrazolo[4,3-c]pyridin-6-yl)-1H-pyrazol-1-yl)cyclobutyl)methyl)amino)-2-(2,6-dioxopiperidin-3-yl)isoindoline-1,3-dione] |
| 100 to 1000 nM | 10 to 100 nM | 10 to 100 nM | < 10 nM | COc1cnc2c(c1)c(C1CC1)nn2[C@H]1C[C@H](CNc2ccc3c(c2)C(=O)N(C2CCC(=O)NC2=O)C3=O)C1 (stereo partly drawn) [GS-682, 5-(((Trans-3-(3-cyclopropyl-5-methoxy-1H-pyrazolo[3,4-b]pyridin-1-yl)cyclobutyl)methyl)amino)-2-(2,6-dioxopiperidin-3-yl)isoindoline-1,3-dione] |
| > 1000 nM | > 1000 nM | – | – | O=C1CCC(N2C(=O)c3ccc(NC[C@H]4C[C@H](n5cc(-c6ncc(F)cc6N6CCNCC6)c(C6CC6)n5)C4)cc3C2=O)C(=O)N1 (stereo partly drawn) [GS-683, 5-(((Trans-3-(3-cyclopropyl-4-(5-fluoro-3-(piperazin-1-yl)pyridin-2-yl)-1H-pyrazol-1-yl)cyclobutyl)methyl)amino)-2-(2,6-dioxopiperidin-3-yl)isoindoline-1,3-dione] |
| 100 to 1000 nM | 10 to 100 nM | 10 to 100 nM | 10 to 100 nM | O=C1CCC(N2C(=O)c3ccc(NC[C@H]4C[C@H](n5cc(-c6ccc7[nH]ncc7n6)c(C6CC6)n5)C4)cc3C2=O)C(=O)N1 (stereo partly drawn) [GS-684, 5-(((Trans-3-(3-cyclopropyl-4-(1H-pyrazolo[4,3-b]pyridin-5-yl)-1H-pyrazol-1-yl)cyclobutyl)methyl)amino)-2-(2,6-dioxopiperidin-3-yl)isoindoline-1,3-dione] |
| > 1000 nM | > 1000 nM | 100 to 1000 nM | 100 to 1000 nM | O=C1CCC(N2C(=O)c3ccc(NCCC[C@H]4C[C@H](n5cc(-c6nccc7c6NCCC7)c(C6CC6)n5)C4)cc3C2=O)C(=O)N1 (stereo partly drawn) [GS-685, 5-((3-(Trans-3-(3-cyclopropyl-4-(1,2,3,4-tetrahydro-1,7-naphthyridin-8-yl)-1H-pyrazol-1-yl)cyclobutyl)propyl)amino)-2-(2,6-dioxopiperidin-3-yl)isoindoline-1,3-dione] |
| > 1000 nM | > 1000 nM | 100 to 1000 nM | 100 to 1000 nM | Cn1ccnc1-c1cn([C@H]2C[C@H](CNc3ccc4c(c3)C(=O)N(C3CCC(=O)NC3=O)C4=O)C2)nc1C1CC1 (stereo partly drawn) [GS-687, 5-(((Trans-3-(3-cyclopropyl-4-(1-methyl-1H-imidazol-2-yl)-1H-pyrazol-1-yl)cyclobutyl)methyl)amino)-2-(2,6-dioxopiperidin-3-yl)isoindoline-1,3-dione] |
